Data published in patent US20240217961A1 (MONOPTEROS THERAPEUTICS, INC., priority 2021, published 2024).

Columns and labels:
human CYP2A6 = molecular target: T1, human CYP2A6 (Homo sapiens, UniProt P11509); assay: CYP phenotyping, recombinant CYP enzyme incubation; type: in vitro ADME
T1 sequence (P11509 1-494): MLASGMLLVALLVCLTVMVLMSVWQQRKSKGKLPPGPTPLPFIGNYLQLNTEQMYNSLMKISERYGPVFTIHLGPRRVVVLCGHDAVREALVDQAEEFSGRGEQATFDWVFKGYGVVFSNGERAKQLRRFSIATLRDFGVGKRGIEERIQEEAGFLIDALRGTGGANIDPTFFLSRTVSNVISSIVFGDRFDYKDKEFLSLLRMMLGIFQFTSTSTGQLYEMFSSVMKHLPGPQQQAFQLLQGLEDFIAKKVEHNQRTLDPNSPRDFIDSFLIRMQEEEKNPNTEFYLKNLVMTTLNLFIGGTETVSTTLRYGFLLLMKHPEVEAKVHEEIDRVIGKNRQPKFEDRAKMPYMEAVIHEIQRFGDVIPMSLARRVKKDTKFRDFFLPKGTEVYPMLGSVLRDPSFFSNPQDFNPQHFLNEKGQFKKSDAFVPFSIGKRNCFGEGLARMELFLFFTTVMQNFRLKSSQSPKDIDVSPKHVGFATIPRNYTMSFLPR
Description: (§1) These incubations were carried out at a concentration of 1 µM and contained 50 pmol/ml of CYP protein. Samples were taken at 0, 5, 10, 15, 20 and 30 minutes. The CLint and t1/2 were calculated from the data.

human CYP3A5 = human CYP3A5 (Homo sapiens, UniProt P20815); assay: CYP phenotyping, recombinant CYP enzyme incubation; type: in vitro ADME
Description: as §1

CYP2D6 = CYP2D6 (Homo sapiens, UniProt P10635); assay: CYP phenotyping, recombinant CYP enzyme incubation; type: in vitro ADME
Description: as §1

human CYP2E1 = human CYP2E1 (Homo sapiens, UniProt P05181); assay: CYP phenotyping, recombinant CYP enzyme incubation; type: in vitro ADME
Description: as §1

CYP2C19 = CYP2C19 (Homo sapiens, UniProt P33261); assay: CYP phenotyping, recombinant CYP enzyme incubation; type: in vitro ADME
Description: as §1

CYP2C8 = molecular target: T2, CYP2C8 (Homo sapiens, UniProt P10632); assay: CYP phenotyping, recombinant CYP enzyme incubation; type: in vitro ADME
T2 sequence (P10632 1-490): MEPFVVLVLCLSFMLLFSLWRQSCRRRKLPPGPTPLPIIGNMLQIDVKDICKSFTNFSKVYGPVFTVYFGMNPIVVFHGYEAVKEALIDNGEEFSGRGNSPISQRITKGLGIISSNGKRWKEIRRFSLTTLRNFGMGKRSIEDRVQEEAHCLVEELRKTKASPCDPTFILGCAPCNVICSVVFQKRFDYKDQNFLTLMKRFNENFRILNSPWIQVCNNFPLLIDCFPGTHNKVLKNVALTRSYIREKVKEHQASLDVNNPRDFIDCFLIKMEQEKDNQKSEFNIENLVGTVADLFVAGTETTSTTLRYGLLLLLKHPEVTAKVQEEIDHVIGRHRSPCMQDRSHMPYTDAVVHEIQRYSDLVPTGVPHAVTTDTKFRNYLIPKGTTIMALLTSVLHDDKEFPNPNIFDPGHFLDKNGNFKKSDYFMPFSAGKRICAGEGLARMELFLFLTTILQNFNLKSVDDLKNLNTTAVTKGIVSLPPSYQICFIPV
Description: as §1

CYP3A4 = CYP3A4 (Homo sapiens, UniProt P08684); assay: CYP phenotyping, recombinant CYP enzyme incubation; type: in vitro ADME
Description: as §1

CYP2C9 = CYP2C9 (Homo sapiens, UniProt P11712); assay: CYP phenotyping, recombinant CYP enzyme incubation; type: in vitro ADME
Description: as §1

human CYP2B6 = molecular target: T3, human CYP2B6 (Homo sapiens, UniProt P20813); assay: CYP phenotyping, recombinant CYP enzyme incubation; type: in vitro ADME
T3 sequence (P20813 1-491): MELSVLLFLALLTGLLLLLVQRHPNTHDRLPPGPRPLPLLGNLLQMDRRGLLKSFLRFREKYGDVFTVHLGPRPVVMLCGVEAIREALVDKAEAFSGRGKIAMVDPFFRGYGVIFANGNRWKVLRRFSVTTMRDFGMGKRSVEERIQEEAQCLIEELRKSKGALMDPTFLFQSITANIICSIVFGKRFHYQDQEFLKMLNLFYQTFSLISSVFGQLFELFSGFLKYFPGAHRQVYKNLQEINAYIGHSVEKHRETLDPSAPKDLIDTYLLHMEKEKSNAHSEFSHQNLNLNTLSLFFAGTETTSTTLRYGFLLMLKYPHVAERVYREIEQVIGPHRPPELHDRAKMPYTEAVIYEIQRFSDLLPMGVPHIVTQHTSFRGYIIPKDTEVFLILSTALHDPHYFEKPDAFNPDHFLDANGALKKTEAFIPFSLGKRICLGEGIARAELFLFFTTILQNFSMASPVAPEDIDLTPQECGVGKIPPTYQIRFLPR
Description: as §1

pKa of free form (UV) = type: physicochemical

Chain of CYP2D6 (P10635 whole entry): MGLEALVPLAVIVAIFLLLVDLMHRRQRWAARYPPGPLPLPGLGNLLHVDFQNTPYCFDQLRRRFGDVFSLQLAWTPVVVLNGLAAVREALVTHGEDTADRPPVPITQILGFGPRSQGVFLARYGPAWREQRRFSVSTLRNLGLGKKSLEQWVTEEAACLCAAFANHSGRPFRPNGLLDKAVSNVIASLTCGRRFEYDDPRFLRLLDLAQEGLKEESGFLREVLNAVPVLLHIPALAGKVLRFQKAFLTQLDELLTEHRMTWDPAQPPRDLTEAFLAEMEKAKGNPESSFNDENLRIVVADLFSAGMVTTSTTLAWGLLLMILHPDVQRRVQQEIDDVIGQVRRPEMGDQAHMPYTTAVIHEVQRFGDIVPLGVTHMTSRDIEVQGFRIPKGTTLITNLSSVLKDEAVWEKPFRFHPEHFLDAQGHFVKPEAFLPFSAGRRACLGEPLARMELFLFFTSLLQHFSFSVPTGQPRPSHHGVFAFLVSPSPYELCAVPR
Chain of CYP2C19 (P33261 whole entry): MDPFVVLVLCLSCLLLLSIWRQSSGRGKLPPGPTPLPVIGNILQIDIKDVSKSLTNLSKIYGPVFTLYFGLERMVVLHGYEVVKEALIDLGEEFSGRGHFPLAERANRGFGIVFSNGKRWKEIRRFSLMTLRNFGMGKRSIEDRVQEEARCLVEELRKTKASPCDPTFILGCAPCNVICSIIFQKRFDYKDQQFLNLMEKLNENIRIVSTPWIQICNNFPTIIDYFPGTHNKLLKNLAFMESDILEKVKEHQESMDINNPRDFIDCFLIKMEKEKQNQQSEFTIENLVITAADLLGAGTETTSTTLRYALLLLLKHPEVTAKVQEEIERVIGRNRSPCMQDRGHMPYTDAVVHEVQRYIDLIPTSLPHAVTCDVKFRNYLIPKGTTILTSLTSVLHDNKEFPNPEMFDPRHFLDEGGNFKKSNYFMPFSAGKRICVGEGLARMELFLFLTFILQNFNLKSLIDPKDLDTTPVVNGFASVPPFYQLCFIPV
Chain of human CYP2E1 (P05181 whole entry): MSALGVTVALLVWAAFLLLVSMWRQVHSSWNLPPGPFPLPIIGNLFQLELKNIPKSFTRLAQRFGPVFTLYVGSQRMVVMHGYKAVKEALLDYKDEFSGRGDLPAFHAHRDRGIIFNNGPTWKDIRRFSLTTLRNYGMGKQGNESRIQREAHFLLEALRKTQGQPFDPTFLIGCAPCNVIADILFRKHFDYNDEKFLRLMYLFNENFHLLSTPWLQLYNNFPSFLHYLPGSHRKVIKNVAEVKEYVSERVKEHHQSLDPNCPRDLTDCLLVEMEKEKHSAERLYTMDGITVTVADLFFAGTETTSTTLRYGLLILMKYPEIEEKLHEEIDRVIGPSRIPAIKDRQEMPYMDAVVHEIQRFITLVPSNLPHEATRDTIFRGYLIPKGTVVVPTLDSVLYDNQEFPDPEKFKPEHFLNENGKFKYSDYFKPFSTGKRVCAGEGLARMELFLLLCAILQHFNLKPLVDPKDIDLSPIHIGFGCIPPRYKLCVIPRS
Chain of CYP3A4 (P08684 whole entry): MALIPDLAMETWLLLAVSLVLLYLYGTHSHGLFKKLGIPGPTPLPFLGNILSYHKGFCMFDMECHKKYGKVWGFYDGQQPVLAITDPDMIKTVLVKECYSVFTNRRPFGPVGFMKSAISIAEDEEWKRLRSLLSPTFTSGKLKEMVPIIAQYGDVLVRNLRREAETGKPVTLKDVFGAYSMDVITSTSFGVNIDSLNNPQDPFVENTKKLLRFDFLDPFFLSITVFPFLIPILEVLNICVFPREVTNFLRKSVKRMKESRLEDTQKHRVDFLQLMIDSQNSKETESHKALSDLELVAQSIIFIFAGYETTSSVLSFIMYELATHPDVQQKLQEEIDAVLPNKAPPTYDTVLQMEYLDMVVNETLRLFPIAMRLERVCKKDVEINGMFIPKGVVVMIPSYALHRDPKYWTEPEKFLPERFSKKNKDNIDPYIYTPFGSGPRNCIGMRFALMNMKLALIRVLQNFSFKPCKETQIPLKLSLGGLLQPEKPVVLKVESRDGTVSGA
Chain of CYP2C9 (P11712 whole entry): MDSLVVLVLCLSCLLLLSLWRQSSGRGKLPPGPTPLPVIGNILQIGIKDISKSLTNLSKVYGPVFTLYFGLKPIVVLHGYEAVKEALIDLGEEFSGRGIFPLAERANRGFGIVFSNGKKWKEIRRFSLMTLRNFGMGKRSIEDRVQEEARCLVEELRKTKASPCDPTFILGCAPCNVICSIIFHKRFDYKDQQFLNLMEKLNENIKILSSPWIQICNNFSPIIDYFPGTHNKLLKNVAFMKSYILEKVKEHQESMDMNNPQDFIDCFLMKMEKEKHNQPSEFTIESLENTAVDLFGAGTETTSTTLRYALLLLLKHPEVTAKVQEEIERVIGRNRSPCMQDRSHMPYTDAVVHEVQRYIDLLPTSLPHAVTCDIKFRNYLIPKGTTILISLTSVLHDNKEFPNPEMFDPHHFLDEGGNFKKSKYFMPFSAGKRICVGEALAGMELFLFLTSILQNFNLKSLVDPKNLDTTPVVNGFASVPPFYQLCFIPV
Chain of human CYP3A5 (P20815 whole entry): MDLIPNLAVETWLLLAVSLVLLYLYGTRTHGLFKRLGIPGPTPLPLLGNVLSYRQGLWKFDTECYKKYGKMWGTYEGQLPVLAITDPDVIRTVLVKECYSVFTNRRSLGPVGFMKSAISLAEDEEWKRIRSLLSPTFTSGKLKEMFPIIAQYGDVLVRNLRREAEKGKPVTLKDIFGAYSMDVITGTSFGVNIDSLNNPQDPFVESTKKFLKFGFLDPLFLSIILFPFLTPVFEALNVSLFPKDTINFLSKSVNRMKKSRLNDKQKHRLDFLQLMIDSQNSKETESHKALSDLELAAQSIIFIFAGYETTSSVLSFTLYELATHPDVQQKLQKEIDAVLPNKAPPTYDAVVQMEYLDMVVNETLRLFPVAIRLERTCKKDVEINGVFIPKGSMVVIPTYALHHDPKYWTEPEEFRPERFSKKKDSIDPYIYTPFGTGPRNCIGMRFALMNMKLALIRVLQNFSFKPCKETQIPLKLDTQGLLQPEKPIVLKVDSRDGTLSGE

## CN1CCC[C@H](CN2c3ccccc3Sc3ccccc32)C1 [(S)-mepazine, (S)-10-((1-methylpiperidin-3-yl)methyl)-10H-phenothiazine]
Human CYP2A6; CYP2A6
  Contribution %: 0.00%
Human CYP2A6; recombinant CYP2A6
  metabolism by recombinant CYP isoform: not found to substantially metabolize
Human CYP2A6; recombinant CYP2A6, 1 µM, turnover not significant and > 80% remaining at last time point reported as 0.00
  CLint: 0.00 μL/min/pmol CYP
Human CYP2A6; recombinant CYP2A6, 1 µM, turnover not significant and > 80% remaining at last time point reported as ∞
  t1/2: ∞
Human CYP3A5
  Contribution %: 0.0651%
  contribution %: 0.0651%
CYP2D6; CYP2D6
  Contribution %: 11.0%
  contribution %: 11.0%
CYP2D6; based on expressed human cytochrome P450s and liver microsomes with specific inhibitors
  CYP isoform participating in metabolism: CYP2D6 is major CYP isoform
CYP2D6; human, recombinant CYP2D6, 1 µM, 50 pmol/ml of CYP protein, mean ± SD, n = 3
  half-life at 1 µM: 9.94 ± 0.819 min
CYP2D6; recombinant CYP2D6, 1 µM, 50 pmol/ml of CYP protein, mean ± SD, n = 3
  CLint: 1.40 ± 0.112 μL/min/pmol CYP
CYP2D6; recombinant CYP2D6, 1 µM, 50 pmol/ml CYP protein
  CLint: 1.40 µL/min/pmol
Human CYP2E1; CYP2E1
  Contribution %: 0.00%
Human CYP2E1; recombinant CYP2E1
  metabolism by recombinant CYP isoform: not found to substantially metabolize
Human CYP2E1; recombinant CYP2E1, 1 µM, turnover not significant and > 80% remaining at last time point reported as 0.00
  CLint: 0.00 μL/min/pmol CYP
Human CYP2E1; recombinant CYP2E1, 1 µM, turnover not significant and > 80% remaining at last time point reported as ∞
  t1/2: ∞
CYP2C19; CYP2C19
  Contribution %: 8.01%
  contribution %: 8.01%
CYP2C19; human, recombinant CYP2C19, 1 µM, 50 pmol/ml of CYP protein, mean ± SD, n = 3
  half-life at 1 µM: 25.9 ± 1.68 min
CYP2C19; recombinant CYP2C19, 1 µM, 50 pmol/ml of CYP protein, mean ± SD, n = 3
  CLint: 0.537 ± 0.0361 μL/min/pmol CYP
CYP2C19; recombinant CYP2C19, 1 µM, 50 pmol/ml CYP protein
  CLint: 0.537 µL/min/pmol
CYP2C8; CYP2C8
  Contribution %: 12.8%
  contribution %: 12.8%
CYP2C8; human, recombinant CYP2C8, 1 µM, 50 pmol/ml of CYP protein, mean ± SD, n = 3
  half-life at 1 µM: 57.2 ± 14.4 min
CYP2C8; recombinant CYP2C8, 1 µM, 50 pmol/ml of CYP protein, mean ± SD, n = 3
  CLint: 0.254 ± 0.0720 μL/min/pmol CYP
CYP2C8; recombinant CYP2C8, 1 µM, 50 pmol/ml CYP protein
  CLint: 0.254 µL/min/pmol
CYP3A4; CYP3A4
  Contribution %: 50.3%
  contribution %: 50.3%
CYP3A4; human, recombinant CYP3A4, 1 µM, 50 pmol/ml of CYP protein, mean ± SD, n = 3
  half-life at 1 µM: 23.5 ± 2.35 min
CYP3A4; recombinant CYP3A4, 1 µM, 50 pmol/ml of CYP protein, mean ± SD, n = 3
  CLint: 0.593 ± 0.0562 μL/min/pmol CYP
CYP3A4; recombinant CYP3A4, 1 µM, 50 pmol/ml CYP protein
  CLint: 0.593 µL/min/pmol
CYP2C9; CYP2C9
  Contribution %: 8.24%
  contribution %: 8.24%
CYP2C9; human, recombinant CYP2C9, 1 µM, turnover observed for one or two replicates only, t1/2 reported as minimum
  half-life at 1 µM: 127 min
CYP2C9; recombinant CYP2C9, 1 µM, turnover observed for one or two replicates only, Clint reported as maximum
  CLint: 0.109 μL/min/pmol CYP
CYP2C9; recombinant CYP2C9, turnover observed in one of the three replicates
  CLint: 0.109 µL/min/pmol
Human CYP2B6; CYP2B6
  Contribution %: 0.00%
Human CYP2B6; recombinant CYP2B6
  metabolism by recombinant CYP isoform: not found to substantially metabolize
Human CYP2B6; recombinant CYP2B6, 1 µM, turnover not significant and > 80% remaining at last time point reported as 0.00
  CLint: 0.00 μL/min/pmol CYP
Human CYP2B6; recombinant CYP2B6, 1 µM, turnover not significant and > 80% remaining at last time point reported as ∞
  t1/2: ∞
pKa of free form (UV)
  pKa: 9.24
